Assay results reported in ChEMBL document CHEMBL4400519, “Indazolylketones as new multitarget cannabinoid drugs” (Eur J Med Chem, 2019).
The source made the active and inactive calls. No cut-off for these calls is given here.

Legend:
[1] = target: T1, Cannabinoid receptor (Mus musculus) (UniProt P47746+P47936); experiment: Agonist activity at cannabinoid receptor in ICR mouse vas deferens assessed as inhibition of electrically induced contractions at 1.82 x 10^-5 M after 10 mins in presence of CB1 antagonist AM251 relative to control; format: protein assay
[2] = target: T1, Cannabinoid receptor (Mus musculus); experiment: Agonist activity at cannabinoid receptor in ICR mouse vas deferens assessed as inhibition of electrically induced contractions at 2.7 x 10^-6 M after 10 mins relative to control; format: protein assay
[3] = target: T1, Cannabinoid receptor (Mus musculus); experiment: Agonist activity at cannabinoid receptor in ICR mouse vas deferens assessed as inhibition of electrically induced contractions at 9 x 10^-7 M after 10 mins in presence of CB2 antagonist AM630 relative to control; format: protein assay
[4] = target: T1, Cannabinoid receptor (Mus musculus); experiment: Agonist activity at cannabinoid receptor in ICR mouse vas deferens assessed as inhibition of electrically induced contractions at 8.1 x 10^-6 M after 10 mins in presence of CB1 antagonist AM251 relative to control; format: protein assay
[5] = target: T1, Cannabinoid receptor (Mus musculus); experiment: Agonist activity at cannabinoid receptor in ICR mouse vas deferens assessed as inhibition of electrically induced contractions at 2.7 x 10^-6 M after 10 mins in presence of CB1 antagonist AM251 relative to control; format: protein assay
[6] = target: T1, Cannabinoid receptor (Mus musculus); experiment: Agonist activity at cannabinoid receptor in ICR mouse vas deferens assessed as inhibition of electrically induced contractions at 1.82 x 10^-5 M after 10 mins in presence of CB2 antagonist AM630 relative to control; format: protein assay
[7] = target: T1, Cannabinoid receptor (Mus musculus); experiment: Agonist activity at cannabinoid receptor in ICR mouse vas deferens assessed as inhibition of electrically induced contractions at 3 x 10^-7 M after 10 mins in presence of CB1 antagonist AM251 relative to control; format: protein assay
Homo sapiens [8] = organism: Homo sapiens; experiment: Antiproliferative activity against Alzheimer's patient derived lymphoblast cells at 5 uM after 72 hrs by MTT assay; format: functional
[9] = target: T1, Cannabinoid receptor (Mus musculus); experiment: Agonist activity at cannabinoid receptor in ICR mouse vas deferens assessed as inhibition of electrically induced contractions at 10^-7 M after 10 mins in presence of CB1 antagonist AM251 relative to control; format: protein assay
[10] = target: T1, Cannabinoid receptor (Mus musculus); experiment: Agonist activity at cannabinoid receptor in ICR mouse vas deferens assessed as inhibition of electrically induced contractions at 2.7 x 10^-6 M after 10 mins in presence of CB2 antagonist AM630 relative to control; format: protein assay
[11] = Antiproliferative activity against normal human derived lymphoblast cells at 5 uM after 72 hrs by MTT assay
Acetylcholinesterase [12] = target: T2, Acetylcholinesterase (Homo sapiens, UniProt P22303); experiment: Inhibition of human erythrocyte AChE at 10 uM using acetylthiocholine as substrate by Ellman's assay
[13] = target: T1, Cannabinoid receptor (Mus musculus); experiment: Agonist activity at cannabinoid receptor in ICR mouse vas deferens assessed as inhibition of electrically induced contractions at 8.1 x 10^-6 M after 10 mins in presence of CB2 antagonist AM630 relative to control; format: protein assay
[14] = target: T1, Cannabinoid receptor (Mus musculus); experiment: Agonist activity at cannabinoid receptor in ICR mouse vas deferens assessed as inhibition of electrically induced contractions at 1.82 x 10^-5 M after 10 mins relative to control; format: protein assay
[15] = target: T1, Cannabinoid receptor (Mus musculus); experiment: Agonist activity at cannabinoid receptor in ICR mouse vas deferens assessed as inhibition of electrically induced contractions at 9 x 10^-7 M after 10 mins relative to control; format: protein assay
Acetylcholinesterase [16] = target: T2, Acetylcholinesterase; experiment: Inhibition of human erythrocyte AChE using acetylthiocholine as substrate by Ellman's assay
[17] = target: T1, Cannabinoid receptor (Mus musculus); experiment: Agonist activity at cannabinoid receptor in ICR mouse vas deferens assessed as inhibition of electrically induced contractions at 8.1 x 10^-6 M after 10 mins relative to control; format: protein assay
[18] = target: T1, Cannabinoid receptor (Mus musculus); experiment: Agonist activity at cannabinoid receptor in ICR mouse vas deferens assessed as inhibition of electrically induced contractions at 9 x 10^-7 M after 10 mins in presence of CB1 antagonist AM251 relative to control; format: protein assay
Homo sapiens [19] = organism: Homo sapiens; experiment: Antiproliferative activity against Alzheimer's patient derived lymphoblast cells at 5 uM in presence of CB2 antagonist AM630 after 72 hrs by MTT assay; format: functional
[20] = target: T1, Cannabinoid receptor (Mus musculus); experiment: Agonist activity at cannabinoid receptor in ICR mouse vas deferens assessed as inhibition of electrically induced contractions at 3 x 10^-7 M after 10 mins in presence of CB2 antagonist AM630 relative to control; format: protein assay
[21] = target: T1, Cannabinoid receptor (Mus musculus); experiment: Agonist activity at cannabinoid receptor in ICR mouse vas deferens assessed as inhibition of electrically induced contractions at 10^-7 M after 10 mins in presence of CB2 antagonist AM630 relative to control; format: protein assay
Cholinesterase [22] = target: T3, Cholinesterase (Homo sapiens, UniProt P06276); experiment: Inhibition of human serum BChE using butyrylthiocholine as substrate by Ellman's assay
[23] = Antioxidant activity assessed as trolox equivalent of APPH-induced radical scavenging activity by ORAC-FL assay; format: functional
SH-SY5Y [24] = experiment: Toxicity in human SH-SY5Y cells at 20 uM after 24 hrs by MTT assay; format: cell-based
[25] = target: Beta-secretase 1 (Homo sapiens) (UniProt P56817); experiment: Inhibition of human BACE1 at 10 uM incubated for 60 mins using rhodamine-EVNLDAEFK-quencher substrate by FRET assay
[26] = target: T1, Cannabinoid receptor (Mus musculus); experiment: Agonist activity at cannabinoid receptor in ICR mouse vas deferens assessed as inhibition of electrically induced contractions at 10^-7 M after 10 mins relative to control; format: protein assay
[27] = target: T1, Cannabinoid receptor (Mus musculus); experiment: Agonist activity at cannabinoid receptor in ICR mouse vas deferens assessed as inhibition of electrically induced contractions at 3 x 10^-7 M after 10 mins relative to control; format: protein assay
Cholinesterase [28] = target: T3, Cholinesterase; experiment: Inhibition of human serum BChE at 10 uM using butyrylthiocholine as substrate by Ellman's assay
SH-SY5Y [29] = experiment: Neuroprotective activity against amyloid beta-induced neurodegeneration in human SH-SY5Y cells at 20 uM preincubated for 1 hr followed by amyloid beta addition and measured after 24 hrs by MTT assay; format: functional, cell-based
SH-SY5Y [30] = experiment: Neuroprotective activity against amyloid beta-induced neurodegeneration in human SH-SY5Y cells at 20 uM preincubated for 1 hr followed by amyloid beta addition and measured after 24 hrs in presence of CB2 antagonist AM630 by MTT assay; format: functional, cell-based
Cholinesterase [31] = target: T3, Cholinesterase; experiment: Competitive inhibition of human serum BChE using butyrylthiocholine as substrate by Lineweaver-Burk plot analysis

T1 sequence (P47746 whole entry, looked up): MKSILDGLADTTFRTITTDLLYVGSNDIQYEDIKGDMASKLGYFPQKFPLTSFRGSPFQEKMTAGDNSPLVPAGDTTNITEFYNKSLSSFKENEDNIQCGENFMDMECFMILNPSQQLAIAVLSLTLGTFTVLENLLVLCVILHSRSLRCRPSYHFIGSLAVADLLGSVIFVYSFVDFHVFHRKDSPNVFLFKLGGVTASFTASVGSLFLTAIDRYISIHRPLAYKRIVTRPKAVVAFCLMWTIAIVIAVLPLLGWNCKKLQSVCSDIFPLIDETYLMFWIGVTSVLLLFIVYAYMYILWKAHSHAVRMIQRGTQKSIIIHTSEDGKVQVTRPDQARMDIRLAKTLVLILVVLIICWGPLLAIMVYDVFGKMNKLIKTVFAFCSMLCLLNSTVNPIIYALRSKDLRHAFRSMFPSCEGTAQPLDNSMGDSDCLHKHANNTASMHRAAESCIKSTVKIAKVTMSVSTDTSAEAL
T1 sequence (P47936 whole entry, looked up): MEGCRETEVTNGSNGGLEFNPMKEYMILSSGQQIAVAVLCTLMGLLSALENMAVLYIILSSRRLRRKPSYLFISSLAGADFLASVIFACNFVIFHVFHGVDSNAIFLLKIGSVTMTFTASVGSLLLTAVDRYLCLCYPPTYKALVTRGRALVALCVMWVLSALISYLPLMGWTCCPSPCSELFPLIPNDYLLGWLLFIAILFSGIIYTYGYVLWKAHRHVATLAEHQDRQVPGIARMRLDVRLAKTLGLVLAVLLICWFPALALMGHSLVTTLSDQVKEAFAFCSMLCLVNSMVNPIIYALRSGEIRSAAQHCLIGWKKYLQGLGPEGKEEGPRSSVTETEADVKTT
T3 sequence (P06276 whole entry): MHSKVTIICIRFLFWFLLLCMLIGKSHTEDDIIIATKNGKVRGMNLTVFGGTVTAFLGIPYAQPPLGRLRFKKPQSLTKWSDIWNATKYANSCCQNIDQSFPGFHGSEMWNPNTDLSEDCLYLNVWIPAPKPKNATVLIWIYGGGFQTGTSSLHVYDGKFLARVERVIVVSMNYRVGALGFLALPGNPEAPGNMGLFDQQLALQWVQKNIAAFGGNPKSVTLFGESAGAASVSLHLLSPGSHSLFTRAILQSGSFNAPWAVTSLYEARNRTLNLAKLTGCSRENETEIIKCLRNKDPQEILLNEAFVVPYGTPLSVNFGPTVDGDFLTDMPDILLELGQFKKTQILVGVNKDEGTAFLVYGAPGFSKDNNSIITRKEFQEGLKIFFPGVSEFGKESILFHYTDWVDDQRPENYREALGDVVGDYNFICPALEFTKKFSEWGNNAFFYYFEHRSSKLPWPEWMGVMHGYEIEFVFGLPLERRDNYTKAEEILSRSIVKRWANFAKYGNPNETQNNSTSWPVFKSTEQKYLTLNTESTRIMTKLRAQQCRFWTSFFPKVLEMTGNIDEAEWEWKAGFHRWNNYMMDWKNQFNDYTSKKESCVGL
Sequence of Beta-secretase 1 (Homo sapiens) (P56817 whole entry): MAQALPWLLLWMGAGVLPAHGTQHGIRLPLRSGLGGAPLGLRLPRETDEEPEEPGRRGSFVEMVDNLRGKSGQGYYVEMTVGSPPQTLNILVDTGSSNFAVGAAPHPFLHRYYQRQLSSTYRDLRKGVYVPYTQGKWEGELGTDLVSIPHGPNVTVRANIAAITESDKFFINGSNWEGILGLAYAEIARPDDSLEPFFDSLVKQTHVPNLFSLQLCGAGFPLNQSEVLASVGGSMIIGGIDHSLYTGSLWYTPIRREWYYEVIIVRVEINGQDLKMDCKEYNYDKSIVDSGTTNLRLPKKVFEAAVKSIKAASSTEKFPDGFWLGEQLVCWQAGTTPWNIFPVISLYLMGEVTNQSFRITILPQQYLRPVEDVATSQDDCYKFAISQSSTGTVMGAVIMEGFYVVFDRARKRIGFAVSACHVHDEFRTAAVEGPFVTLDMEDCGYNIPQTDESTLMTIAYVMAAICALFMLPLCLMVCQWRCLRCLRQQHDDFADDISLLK
T2 sequence (P22303 whole entry): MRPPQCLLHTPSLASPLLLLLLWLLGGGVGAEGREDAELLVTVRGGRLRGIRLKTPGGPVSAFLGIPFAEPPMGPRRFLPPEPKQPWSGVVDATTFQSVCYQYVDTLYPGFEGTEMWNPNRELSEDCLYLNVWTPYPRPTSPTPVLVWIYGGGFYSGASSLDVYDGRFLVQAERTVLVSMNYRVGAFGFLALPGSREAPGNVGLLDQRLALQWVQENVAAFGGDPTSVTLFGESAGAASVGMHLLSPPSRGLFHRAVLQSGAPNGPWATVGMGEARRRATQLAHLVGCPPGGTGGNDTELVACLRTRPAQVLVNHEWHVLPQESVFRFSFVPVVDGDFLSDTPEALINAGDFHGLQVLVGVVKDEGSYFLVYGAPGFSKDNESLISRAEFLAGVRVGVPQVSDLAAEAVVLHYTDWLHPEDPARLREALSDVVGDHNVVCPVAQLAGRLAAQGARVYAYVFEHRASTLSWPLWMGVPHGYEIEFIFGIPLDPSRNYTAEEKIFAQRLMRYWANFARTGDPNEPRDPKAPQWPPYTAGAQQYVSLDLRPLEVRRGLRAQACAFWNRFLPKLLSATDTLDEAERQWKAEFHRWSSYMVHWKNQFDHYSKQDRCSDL

SMILES	inhibition [1]	inhibition [2]	inhibition [3]	inhibition [4]	inhibition [5]	inhibition [6]	Activity (Homo sapiens [8])	inhibition [9]	inhibition [10]	Activity [11]	inhibition [13]	inhibition [14]	inhibition [15]	IC50 (Acetylcholinesterase [16])	inhibition [17]	IC50 (Cholinesterase [22])	Activity [23]	inhibition [25]	inhibition [26]	inhibition [27]	further results
O=C(c1ccccc1OCc1ccccc1)n1nc(OCCCN2CCCCC2)c2ccccc21	74.8%	31.4%	-0.5%	26.4%	-1%	77.5%	Active	-6.8%	-3%	Non-Toxic	29.7%	94.7%	6.4%	> 10 µM	74.4%	0.0025 µM	inactive	38.4%			inhibition [7]: -6.8%; inhibition (Acetylcholinesterase [12]): 31%; inhibition [18]: -4.5%; Activity (Homo sapiens [19]): inactive; inhibition [20]: 1.1%; inhibition [21]: -3.1%; Activity (SH-SY5Y [24]): Toxic
O=C(c1cccc(Cl)c1Cl)n1nc(OCCCN2CCCCC2)c2ccccc21	89.8%	27.4%	10.4%	65.3%	15.2%	85.5%	Active	-0.7%	18.2%	Non-Toxic	62.7%	96.6%	14.3%	17 µM	89.3%	0.08 µM	inactive	45.1%	1.4%	6.2%	inhibition [7]: 2%; inhibition [18]: 8.7%; Activity (Homo sapiens [19]): inactive; inhibition [20]: 0%; inhibition [21]: -3%; Activity (SH-SY5Y [24]): Toxic
O=C(c1cccc(Cl)c1F)n1nc(OCCCN2CCCCC2)c2ccccc21	76.1%	24.9%	-3.8%	54.9%	12.9%	58.3%	Active	-7.1%	-2.8%	Non-Toxic	12.9%	80.5%	18.7%	> 10 µM	54.7%	0.8 µM	inactive	34%	9.6%	13.9%	inhibition [7]: -5.3%; inhibition (Acetylcholinesterase [12]): 48%; inhibition [18]: 4.3%; Activity (Homo sapiens [19]): inactive; inhibition [20]: 1.7%; inhibition [21]: -1.5%; Activity (SH-SY5Y [24]): Toxic
O=C(Cc1ccc(Cl)cc1)n1nc(OCCCN2CCCCC2)c2ccccc21	83.5%	7.3%	2.4%	61.8%	12.4%	96.1%		-5.5%	19.7%		86.6%	94.2%	0.4%	> 10 µM	67.4%	> 10 µM	inactive	50%	-4.5%	-4.8%	inhibition [7]: -6.2%; inhibition (Cholinesterase [28]): 46%; inhibition (Acetylcholinesterase [12]): 43%; inhibition [18]: -2.2%; inhibition [20]: -3.2%; inhibition [21]: -7.8%
COc1ccc(CC(=O)n2nc(OCCCN3CCCCC3)c3ccccc32)cc1	89.7%	42.5%	-1.4%	61.9%	-1.6%	94.3%	Active	-9.4%	14.7%	Non-Toxic	68.5%	96%	16.9%	> 10 µM	88.5%	> 10 µM	inactive	60%	-2.4%	-0.3%	Activity (SH-SY5Y [29]): Active; Activity (SH-SY5Y [30]): inactive; inhibition (Cholinesterase [28]): 42%; inhibition (Acetylcholinesterase [12]): 43%; Activity (Homo sapiens [19]): inactive; inhibition [20]: -9.4%; inhibition [21]: -9.2%
CCCC(C)(C)c1ccc2c(c1)OC(C)(C)[C@@H]1CC=C(C)C[C@@H]21							Active			Non-Toxic											
O=C(c1ccccc1Cl)n1nc(OCCN2CCCC2)c2ccccc21	21.1%	15.1%	3.5%	-2.6%	-2.2%	29.3%	Active	-2.8%	8.8%	Non-Toxic	15.8%	75.4%	10.8%	9.7 µM	45.9%	1.3 µM	inactive	9%	1.5%	4.9%	Activity (SH-SY5Y [29]): Active; Activity (SH-SY5Y [30]): inactive; inhibition [7]: -2.8%; inhibition [18]: -1.2%; Activity (Homo sapiens [19]): inactive; inhibition [20]: 0.3%; inhibition [21]: -2.5%
O=C(c1cccc(Cl)c1Cl)n1nc(OCCN2CCCC2)c2ccccc21	80.4%	27.8%	7.9%	44.8%	13%	52.9%	Active	-0.3%	14.2%	Non-Toxic	30.4%	80.8%	17.3%	> 10 µM	56.3%	0.23 µM	0.41 equiv	32.6%	1.6%	5.6%	Activity (SH-SY5Y [29]): Active; Activity (SH-SY5Y [30]): inactive; inhibition [7]: 3.4%; inhibition [18]: 7.1%; Activity (Homo sapiens [19]): inactive; inhibition [20]: 3.4%; inhibition [21]: 0%
O=C(c1ccc2ccccc2c1)n1nc(OCCCN2CCCCC2)c2ccccc21	49.5%	1.2%		0.7%		49.1%			-9.7%		20.9%	41.9%	0.1%	> 10 µM	17.2%	2.1 µM	inactive	38%	-2.1%	-1%	inhibition (Acetylcholinesterase [12]): 33%; inhibition (Cholinesterase [31]): Active
O=C(c1ccc2ccccc2c1)n1nc(OCCN2CCCCC2)c2ccccc21		-2.8%										18.2%	-3.5%	> 10 µM	4%	4 µM	inactive	50%	0.3%	-1.2%	inhibition (Acetylcholinesterase [12]): 43%; inhibition (Cholinesterase [31]): Active
